Here are results for two compounds from US20150087722A1, “TREATMENT FOR BREAST TUMOR CELL METASTASIS” (China Medical University, priority 2012, published 2015).

Test [1] concerns tumor inoculated nude mice. The experiment in a line: histopathological examination (H&E staining) of tumor inoculated nude mice. The settings on record: 0.75 mg/Kg everyday, magnification 400×. Format: in vivo. As for the experimental part:
In the histopathological examination of tumor inoculated nude mice, the inoculated nude mice were examined through a histopathological H&E staining method. The tumor and internal organs were embedded in paraffin and sliced into slides having a thickness of […] by a slicer. Then after deparaffinizing, rehydrating and renaturating, the slide was washed with water twice and stained with Hematoxylin solution for 30-50 s. Then the slide was treated with 0.1% acetic acid-water and washed with water twice. At last the slide was stained with Eosin for 100 s and mounted with Histoclad.

Test [2] relates to EMT-related proteins in breast tumor cells MCF-7. The experiment in a line: western blotting of EMT-related proteins. The settings on record: MCF-7, 10, 15 and 20 μM, 24 h, with dose increasing. It counts as cell-based, human. The protocol: (§1) FIG. 2A illustrates the expression results of EMT-related proteins in breast tumor cells MDA-MB-231 after the breast tumor cells MDA-MB-231 have been respectively cultured under compound II having concentrations of 0, 0.5, 1 and 2 μM for 24 h; and FIG. 2B illustrates the expression results of EMT-related proteins in breast tumor cells MCF-7 after the breast tumor cells MCF-7 have been respectively cultured under the compound II having concentrations of 0, 10, 15 and 20 μM for 24 h. FIG. 3A illustrates the western blotting results of EMT-related proteins in the breast tumor cells MDA-MB-468, where the breast tumor cells MDA-MB-468 are treated with the compound I having concentrations of 0, 0.5, 1 and 2 μM for 24 h, and FIG. 3B illustrates the western blotting results of EMT-related proteins in the breast tumor cells MDA-MB-435, where the breast tumor cells MDA-MB-435 are treated with the compound I having concentrations of 0, 2.5, 5 and 7.5 μM for 24 h. FIG. 4 illustrates the western blotting results of EMT-related proteins in the human normal breast cells MCF-10A stimulated by TNF-α/TGF-β, where the human normal breast cells MCF-10A are treated with the compound I having concentrations of 2 μM for 24 h. The human normal breast cells stimulated by TNF-α/TGF-β can cause TNF-α/TGF-β-induced EMT in the human normal breast cells MCF-10A. The steps of western blotting include: washing cells with PBS twice at 4° C.; adding a lysis buffer and rubbing the cells by a rubbr policeman so as to lyse cells; putting the lysed cell solution into a 1.5 ml microcentrifuge tube and shaking for 1 min; centrifuging at 12000 rpm for 10 min and taking the supernatant; measuring concentration of the protein through a Bio-Rad protein assay kit; and storing the remained extracted protein solution at −70° C.; taking 100 μg protein solution and adding a SDS/protein loading buffer having the same volume, where the SDS/protein loading buffer has a concentration two times larger than the protein solution; boiling the mixture of the protein solution and the SDS/protein loading buffer at 100° C. for 10 min; cooling and loading the protein samples in each hole of gel; adjusting the voltage to 100 V and running the protein samples on the gel until the tracking dye in the sample buffer reaches the bottom of the gel; and subsequently transferring the protein from the gel using electrophoresis. A PVDF membrane was soaked in methanol until the paper was totally wet. The paper was arranged in a transfer tank placed in a 4° C. ice box, and the protein transfer was performed at a current of […] for 4 h. The PVDF membrane was then taken out, placed in a PBS blocking solution including 1% BSA and shaken for 2 h. Then the PVDF membrane was placed in a blocking solution including a primary antibody and slowly shaken at 100 rpm for 1 h at the room temperature. Subsequently the PVDF membrane was washed with PBST for third times, each time for 3-5 min. According to different […] and different dilution ratios, the PVDF membrane was shaken for 2 h on a horizontal rotator and then washed with PBST for three times. Then luminescence image equipment was used, where the PVDF was placed onto a black metal plate by a plastic pincer and the face including protein was upwards, a 1:1 mixed Chemiluminesent Substrate was added into the membrane and the exposure time depends on the fluorescence intensity of antibodies.
Background: In western blotting, separated proteins are transferred to a membrane and probed.

For test [3], the system named is NF-κB in MDA-MB-231 cells. The experiment in a line: NF-κB immunofluorescence staining. Format: cell-based, human. The conditions noted are these: MDA-MB-231, FIG. 7. The protocol:
FIG. 7 illustrates photographs taken at a 200× field under a fluorescence microscope, where a primary antibody NF-κB was used and the cells were stained through the immunofluenrence staining method. In the immunofluenrence staining, the compound II in different concentrations were used to stimulate MDA-MB-231 cells, and a primary antibody NF-κB (with a dilution ratio of 1:250) was added, and then the cells were cultured at an atmosphere of 5% CO2 for 2 h at 37° C. Subsequently a fluorescence secondary antibody (with a dilution ratio of 1:200) was added, and finally DAPI (with a dilution ratio of 1:1000) was added. The cells were stored with protect from light at the room temperature for 5 min. The cells were observed under the fluorescence microscope and a photograph (200×) of the cells was taken. Finally, the cells were mounted with the mounting gel.

The subject of test [4] is E-cadherin and Vimentin in cells of tumor inoculated nude mice. The experiment in a line: immunochemistry staining of E-cadherin and Vimentin in tumors of nude mice. It counts as in vivo. The settings on record: 0.75 mg/Kg everyday. The protocol: ICC includes embedding the tumor cells in paraffin and slicing the embedded cells into slides having a thickness of […] by a slicer, deparaffinizing, rehydrating and renaturating, picking the slide out and putting the slide into the primary antibody E-cadherin; reacting for 1.5 h and washing the slide for three times with PBS, reacting with the secondary antibody for 30 min and washing the slide for three times with PBS, staining the slide with 3′,3′-diaminobenzendine (DAB) at a ratio of 1:30, and the slide was mounted with Entellanz. The expression amount of signaling-related proteins in the cells of tumor inoculated nude mice was detected by an immunochemistry staining method. In this test the expression of E-cadherin and Vimentin was particularly detected. Immunochemistry staining method and the quantitative method thereof were described as in the test example 2-2, and it is not illustrated any further. FIG. 29 illustrates photomicrographs of expression results of signaling-related proteins in the cells of tumor inoculated nude mice after the cells were stained through the immunochemistry staining method. FIGS. 30 and 31 were respective quantitative results of primary antibody reaction.

For test [5], the system named is EMT-related proteins in breast tumor cells MDA-MB-435. As to the kind of experiment: western blotting of EMT-related proteins. Format: cell-based, human. The settings on record: MDA-MB-435, 2.5, 5 and 7.5 μM, 24 h, with dose increasing. As for the experimental part: as §1
Test [6] relates to EMT-related proteins in breast tumor cells MDA-MB-468. The experiment in a line: western blotting of EMT-related proteins. Format: cell-based, human. The settings on record: MDA-MB-468, 0.5, 1 and 2 μM, 24 h, with dose increasing. As for the experimental part: as §1

On to `COC1=C(OC)C(=O)C(C)=C(C)C1=O` [compound II], for which the “mitosis state of tumor cells” value in test [1] is “low mitosis state”. Besides, in test [2], the “expression amount of E-cadherin, p-β-catenin and occludin” value was “increased”; the “expression amount of proteins facilitating tumor cell proliferation (Twist, Snail, vimentin, β-catenin)” value was “decreased”. In addition, the “expression of NF-κB” value in test [3] is on record as “inhibit expression of NF-κB”. Also, in test [4], the “expression amount of proteins used for facilitating tumor proliferation in tumor tissues” value is listed as “low” and the “expression amount of proteins used for inhibiting tumor proliferation in tumor tissues” value is given as “high”.

Consider `COC1=C(OC)C(=O)C(C)=CC1=O` [compound I], for which, in test [5], the “expression amount of E-cadherin and occludin” value was “increased”; the “expression amount of proteins facilitating tumor cell proliferation (Snail, vimentin, β-catenin)” value was “decreased”. For the same compound, in test [6], the “expression amount of E-cadherin and occludin” value is given as “increased”; the “expression amount of proteins facilitating tumor cell proliferation (Snail, vimentin, β-catenin)” value was “decreased”.
